Experimental data taken from article PMC12169663, “Deciphering the Tumor Uptake of Heterobivalent (SST2/Albumin) [^64Cu]Cu-NODAGA-cLAB-TATEs” (Journal of Medicinal Chemistry, 2025).
*1 amine or outer side, *2 acyl side, *3 side chain or, on linkers, in order; H or OH if unused. Where a SMILES comes first, the peptide text is derived from it. Bridges are numbered along the chain shown (N, C = ends). [ ]: non-standard residue; d: D form. The star is where a group is joined. Ala(1-(4-CO-Ph)triazol-4-yl) = O=C([C@H](Cc1cn(-c2ccc(C(=O)[*:3])cc2)nn1)N[*:1])[*:2]; X1 = O=C(O)CN1CCN(CC(=O)O)CCN([C@H](CCC(=O)*)C(=O)O)CC1; X2 = Cc1ccc(CCCC(=O)NCCCC[C@H](N*)C(N)=O)cc1; AEEA = NCCOCCOCC(=O)O

Experiments:
[1] = biological target: T1, SST2 (Mus musculus, UniProt P30875); assay: Saturation binding analysis to SST2 using intact MPC cells
T1 construct: a mouse pheochromocytoma cell line (MPC) with a high endogenous abundance of SST2 was used; endogenous in cells; host or cells: MPC (mouse pheochromocytoma) cells, intact
T1 sequence (P30875 whole entry): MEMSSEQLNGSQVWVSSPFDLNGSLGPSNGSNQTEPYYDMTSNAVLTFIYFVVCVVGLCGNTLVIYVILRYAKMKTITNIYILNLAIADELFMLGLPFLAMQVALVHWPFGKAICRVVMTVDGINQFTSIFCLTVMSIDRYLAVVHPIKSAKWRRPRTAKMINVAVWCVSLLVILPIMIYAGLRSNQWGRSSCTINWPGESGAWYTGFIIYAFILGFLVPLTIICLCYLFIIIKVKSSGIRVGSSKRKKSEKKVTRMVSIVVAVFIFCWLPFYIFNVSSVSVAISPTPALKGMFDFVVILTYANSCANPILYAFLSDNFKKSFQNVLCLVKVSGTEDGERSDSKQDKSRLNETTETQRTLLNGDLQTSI
Description: Binding assay was performed as previously described. , A number of 3 × 10^5 cells/cm^2 were seeded in collagen-coated 48-well microplates (CELLSTAR 48 Well Cell Culture Multiwell Plates, Polystyrene, Greiner Bio-One, item no. 677180) and grown for 3 days. For binding assays, the cell culture medium was removed and replaced by fresh medium supplemented with the radioligand (Am = 25 MBq/nmol) at increasing final concentrations between 0.321 and 40 nM (final sample volume: 0.2 mL). Nonspecific cell binding was measured in the presence of nonlabeled DOTA-TATE or Acetyl-TATE at a final concentration of 1 μM. Nonspecific binding to plastic surfaces was determined in cell-free wells at radioligand concentrations of 0.312, 1.25, 5, and 20 nM (with and without 1 μM nonlabeled DOTA-TATE or Acetyl-TATE; the values at the other radioligand concentrations were derived by linear regression). Samples were incubated for 60 min at 37 °C. Incubation was stopped by washing with ice-cold Dulbecco’s PBS. Cells were lysed with 0.1 M NaOH containing 1% (w/v) SDS. Activity was measured in cell homogenates and in a series of radioligand standards containing increasing molar amounts between 0.06 and 8 pmol using the gamma counter Wizard (PerkinElmer). The protein content of cell homogenates was measured as described above. Measurements for total binding were performed in triplicate, while measurements for nonspecific binding were performed in duplicates.
Calculations were performed as previously described. , Plots of “total binding” = f(radioligand) were analyzed by nonlinear regressions using the model of “one site-total, accounting for ligand depletion” as implemented in GraphPad Prism and plots of “nonspecific binding” = f(radioligand) were analyzed by linear regressions (Figure S3). For the ligand depletion model, the term “NS” was constrained to the respective slopes obtained by the linear regressions. The terms “SpecAct” (obtained with standard curves, Figure S4) and “Vol” (0.2 mL, assay volume) were also constrained. […]

[2] = system: MPC cells; assay: Cell binding and uptake (internalization) in MPC cells; format: cell-based, mouse
Description: Furthermore, the receptor-mediated endocytosis (referred to as internalization) of the novel compounds was assessed. The values for the internalized fraction (or “acid wash” resistant fraction) were >50% (Figure S5), which might indicate a similar pharmacological behavior of these ligands upon binding to SST2 as the parent ligand TATE.
Cell binding and uptake were measured as previously described. , MPC cells were seeded into collagen-coated 24-well microplates and cultivated for 4 days. All washing steps were performed using PBS containing 0.9 mM CaCl2 and 0.5 mM MgCl2. Total radioligand uptake was measured after incubation with the radioligand (A m = 30 GBq/μmol) at a final concentration of 20 nM in RPMI 1640 medium with GlutaMAX supplement (Thermo Fisher Scientific) for 1 h at 37 and 4 °C. Nonspecific binding was determined in the presence of 20 μM Acetyl-TATE. The uptake fraction was measured after acid wash of cell surface-bound radioligand with wash buffer containing 0.05 M glycine, pH 2.8, for 5 min. The activity of cell homogenates was measured using the γ counter Wizard (PerkinElmer). The protein content of cell homogenates was measured as described above.
Figure S5: Cell binding data
Data shown in A and B are mean values (±SD) of one experiment (NODAGA-cLAB(5/6)- TATE and NODAGA-cLAB4-scrTATE) or 3 experiments (±SEM, DOTA-EB-TATE), which were performed in sextuplicate. In C, the amount of specific “internalized” (acid resistant) radioligand (red bars in A, mean values) is expressed as percentage of specific total -bound radioligand (blue bars in A, mean values). The difference to 100% was assigned to “surface - bound” radioligand. For a better overview, the compound names were abbreviated. […]
specific binding of radioligand
Incubation at 37°C for 1 h
(% dose/mg of protein) Washing with
Incubation at 4°C for 1 h […]
(1 picture or pasted object on this page, not shown here)

[3] = n-Octanol/PBS distribution coefficient (log D7.4)
Description: The log D7.4 values of the ^64Cu-labeled peptides were determined with the octanol partitioning method.
The determination of the log D7.4 value was done in triplicate as previously described. , Briefly, a sample of the radioligand was added to the 1:1 mixture of PBS/n-octanol. The radioactivity in a defined volume of each layer was measured (ISOMED 2100). The distribution coefficient was expressed as the logarithm of the ratio of counts per minute (cpm) measured in the n-octanol phase to the cpm measured in the PBS phase.

[4] = Small-animal PET imaging in subcutaneous MPC tumor allograft model; settings: female, NMRI-nu/nu (Rj:NMRI-Foxn1nu/nu), mouse, iv, total radioactivity
Description: (§1) The biodistribution of [ ^ 64 Cu]­Cu-NODAGA-cLAB­(5/6)-TATE, [ ^ 64 Cu]­Cu-NODAGA-cLAB4- scr TATE, and [ ^ 64 Cu]­Cu-DOTA-EB-TATE was assessed in a subcutaneous MPC tumor allograft model via small-animal PET imaging (Figure A–D). The time-activity curves (TACs) for tumor, kidneys, and heart are shown in Figure A–D (for TACs of muscle and liver, see Figure S6) and the calculated areas under curves (AUC0–48h) and tumor-to-tissue ratios are graphically summarized in Figure E,F, respectively.
(§2) (A–D) Time-activity curves (SUV, decay-corrected, as a function of time up to 48 h) obtained by PET acquisition are depicted (0–2 h in dynamic mode and time points 5, 24, and 48 h p.i.; the x-axes are segmented accordingly). Data shown are mean values (±SD) of a group of MPC tumor-bearing NMRI-nu/nu mice (n = 2, but for cLAB6-TATE n = 4). […] (E) Calculated AUC0–48h values. Data shown are mean values (±SD). (F) Tumor/organ ratios based in the AUC0–48h values.
(§3) A number of 4 × 10^6 MPC cells were resuspended in 40 μL of Dulbecco’s phosphate-buffered saline and injected subcutaneously into the shoulder of 7–10-week-old female nude mice (Rj:NMRI-Foxn1^nu/nu, Janvier Laboratories, Le Genest-Saint-Isle, France). General anesthesia was induced and maintained with inhalation of 10% (v/v) desflurane in 30% oxygen/air (v/v). Tumor growth was monitored using caliper measurements. Animals were sacrificed using CO2 inhalation and cervical dislocation. When diameters of MPC tumors reached 8 ± 3 mm (volumes of 65–282 mm^3), small-animal positron emission tomography (PET) was performed using the nanoScan PET/CT (Mediso Medical Imaging Systems, Budapest, Hungary) and Si78 PET/CT (BRUKER, Billerica, MA) instruments. Scanners were cross-calibrated using a syringe source containing 10 MBq of [^64Cu]­CuCl2 diluted in 2 mL of 0.01 M HCl. Each mouse (n = 2) received between 7 and 10 MBq of the respective radioligand (A m = 40 GBq/μmoL) delivered in 0.154 M NaCl via intravenous injection through a tail vein catheter within the initial 30 s after scan start. […] Standardized uptake values (SUV = [MBq detected activity/mL tissue]/[MBq injected activity/g body weight]) were determined in defined volumes of interest (VOIs) and reported as VOI-averaged SUVmean ± range [min–max]. Assuming a density of 1 g/mL for body tissues, the SUVs become dimensionless.

[5] = system: MPC tumor-bearing NMRI-nu/nu mice; assay: as above
Description: as §1, §2, §3

Kd [SST2] ([1]; 60 min 37 °C, mean (±SEM) of 2–4 experiments): no binding was detected and n.b.
Bmax ([1]; mean (±SEM)): n.b.
logD [3]: -2.17
SUV at 24 h ([4]; muscle): 0.04 SUV
SUV at 24 h ([4]; tumor): 0.49 SUV
integral tumor uptake relative to [64Cu]Cu-NODAGA-cLAB4-TATE ([5]; AUC0–48h): less than 10%
AUC0-48h heart ([5]; PET, i.v., 7–10 MBq/animal): 41.09 SUVmean*h
AUC0-48h kidney ([5]; PET, i.v., 7–10 MBq/animal): 59.26 SUVmean*h
AUC0-48h liver ([5]; PET, i.v., 7–10 MBq/animal): 25.84 SUVmean*h
AUC0-48h tumor ([5]; PET, i.v., 7–10 MBq/animal): 25 SUVmean*h
AUC0-48h tumor ([5]; PET, i.v., 7–10 MBq/animal, listed as cLAB4-scrTATE): 25.35 SUVmean*h
AUC0–48h muscle ([5]; mouse, in vivo): 5.5 SUVmean*h
integral tumor uptake, fold lower than [64Cu]Cu-NODAGA-TATE ([5]; mouse, in vivo): 6 fold
integral tumor uptake, fold lower than [64Cu]Cu-NODAGA-cLAB4-TATE ([5]; mouse, in vivo): 11 fold
SMILES: Cc1ccc(CCCC(=O)NCCCC[C@H](NC(=O)c2ccc(-n3cc(C[C@H](NC(=O)CC[C@H](C(=O)O)N4CCN(CC(=O)O)CCN(CC(=O)O)CC4)C(=O)NCCOCCOCC(=O)N[C@@H](CCCCN)C(=O)N[C@H]4CSSC[C@@H](C(=O)N[C@H](C(=O)O)[C@@H](C)O)NC(=O)[C@@H](Cc5c[nH]c6ccccc56)NC(=O)[C@@H](Cc5ccccc5)NC(=O)[C@H]([C@@H](C)O)NC(=O)[C@H](Cc5ccc(O)cc5)NC4=O)nn3)cc2)C(N)=O)cc1 [[64Cu]Cu-NODAGA-cLAB4-scrTATE, metal not drawn] (X1-[Ala(1-(4-CO-Ph)triazol-4-yl)](X2)[AEEA]KCYT[dF][dW]CT-OH; disulfide 4-9)
binding in the cell binding and uptake assay ([2]; MPC cells, 20 nM, 1 h): no binding at all
specific binding of radioligand ([2]; incubation at 4 °C for 1 h, washing with PBS pH 7.4, 20 nM): 0.01 % dose/mg of protein
specific binding of radioligand ([2]; incubation at 4 °C for 1 h, washing with glycine buffer pH 2.8, 20 nM): 0.03 % dose/mg of protein
specific binding of radioligand ([2]; incubation at 37 °C for 1 h, washing with PBS pH 7.4 (total bound), 20 nM): 0.02 %dose/mg of protein
specific binding of radioligand ([2]; incubation at 37 °C for 1 h, washing with glycine buffer pH 2.8 (acid resistant), 20 nM): 0.04 %dose/mg of protein
